pIC50: −log10 of the molar value.
Experiments:
HCT-116 cells [1] = assay: BrdU incorporation assay; assay type: cell-based; settings: Homo sapiens, read-out: Brd U, concentration that inhibits BrdU incorporation by 50%
Experimental: This method measured the percentage of cells that incorporated the nucleotide analog, BrdU, into newly synthesized DNA as cells progressed through the S phase of the cell cycle. The inhibition of BrdU incorporation was used as a measure of a Cdk inhibitor's effect on S phase progression and DNA replication.
3 sets of HCT-116 cells (100,000 cells/set) were plated in T25 flasks and incubated with a test compound as above. Analysis was done at 24, 48, and 72 hours. BrdU was added to each T-25 flask from a stock of 10 mg/ml to a final concentration of 10 μM and the cells were incubated for an additional 16-18 hours at 37° C. The cells were then prepared for flow cytometric analysis according to manufacturer's protocol (BrdU Flow kit, BD-Pharmingen catalogue #2354KK) as follows:
Cells were harvested (adherent and floating) from the T25 flasks directly into Falcon 12×75 flow cytometric tubes as above followed by fixation and permeabilization with the addition of 100 μl of Cytofix/Cytoperm buffer (30 minutes, room temperature). The cells were then washed with 1 ml of Perm Wash buffer and the cell pellets were resuspended in 100 μl Cytoperm Plus buffer and incubated on ice for 10 minutes. The cells were then washed again with 1 ml of Perm Wash buffer and the fixation was repeated in 100 μl of Cytofix/Cyto Perm buffer for 10 minutes at room temperature. The cells were then washed with 1 ml of Perm Wash buffer. The cells were next treated for one hour at 37° C. with 100 μl DNase to expose incorporated BrdU followed by another wash step with 1 ml of Perm Wash buffer. […] Cells were protected from light and incubated at room temperature for 20-30 minutes. Following the incubation, the cells were washed with 1 ml of Perm Wash buffer, resuspended in 300 μl of 2% FBS in PBS, and analyzed on the flow cytometer. Results are presented in Table 2 as the concentration of compound (μM) that inhibits of BrdU incorporation by 50%.

arrested IMR90 cells = assay: Arrested cell assay, arrested IMR90 normal cells; assay type: cell-based; settings: Homo sapiens, IMR-90; serum-starved arrested cells, 72 hours; read-out: Arrested cell assay IMR90 IC50
Experimental: (§1) Cyclin-dependent kinase (Cdk) activity is required to promote the progression of cells through distinct phases of the cell division cycle. The proliferation of normal, non-transformed, cells in culture requires the presence of growth factors, the removal of which, through serum deprivation, leads to a loss of Cdk activity and consequent exit from the cell cycle as cells enter the quiescent phase, G0.
IMR90 cells were plated in triplicate for each compound concentration to be tested in MEM-A media containing 10% fetal calf serum at a density of either 2,000 or 20,000 cells per well in 24-well dishes and incubated overnight at 37° C., 5% CO2. The media was removed from the 20,000 cell-per-well dish, cells were washed once with serum-free media, and serum-free media was placed on cells. The plates containing cells both in the presence and absence of serum were incubated for 3 additional days.
(§2) The cells are incubated in the presence of the compounds for 72 hours (3 days) at 37° C. […] Cycling and arrested HCT-116 cells as well as cycling IMR90 cells were exposed to a panel of 6 doses ranging from 5 to 250 nM. For arrested normal cells, the range of doses was increased to 50 nM to 25 μM, to compensate for the expected decrease in activity.
(§3) The effect of 72 hours of compound exposure on cellular viability was assessed in the Calcein AM assay. Calcein AM is a fluorescent substrate of intracellular esterases that are only active in viable cells. Cleavage of the substrate thus provides a measure of viability, which is proportional to cell number.
(§4) A Calcein AM stock solution was prepared by dissolving a 50 μg aliquot (Molecular Probes catalogue # C3100) in 50 μl DMSO. The tube was incubated at room temperature for approximately 10 minutes to ensure that the Calcein had dissolved completely. The calcein was diluted into 10 ml PBS to prepare the final solution, which was protected from light.
(§5) The media was aspirated off the cells, which were then washed twice with 1 ml PBS to remove the PBS completely from cells by aspiration. 0.5 ml of the Calcein/PBS solution was transferred by pipette into each well. The plates were incubated at 37° C. for 75 minutes (protected from light) and read on a fluorescent plate reader (excitation 485/20 and emission 530/25).

arrested HCT-116 cells = assay: Arrested cell assay, arrested HCT-116 tumor cells; assay type: cell-based; settings: Homo sapiens, serum-starved arrested cells, 72 hours, read-out: Arrested cell assay HCT IC50
Experimental: as §1
HCT-116 cells were plated in triplicate for each compound concentration to be tested in RPMI 1640 media containing 10% fetal calf serum at a density of either 200 or 2,000 cells per well in 24 well dishes, and incubated overnight at 37° C., 5% CO2. The media from the plate containing 2,000 cells per well was removed, cells were washed once with serum free media and 1 ml of serum free media was placed on cells. The plates containing cells both in the presence and absence of serum were incubated for 6 additional days.
as §2, §3, §4, §5

HCT-116 cells [2] = assay: Calcein AM viability assay, HCT-116; assay type: cell-based; settings: Homo sapiens
Experimental: The potency of Cdk inhibitors, as measured by loss of cellular viability, was determined with the Calcein AM assay (Molecular Probes). Calcein AM is a substrate of intracellular esterases, which is cleaved only in viable cells to generate a fluorescent product that can be quantified with a fluorescent plate reader. The fluorescent signal is proportional to the number of viable cells, and thus loss of signal in response to the exposure of cells to Cdk inhibitors correlates with a loss of viability. This assay can distinguish cell cycle arrest, in which cells may still by viable, from loss of viability and is thus well suited for the evaluation of Cdk inhibitors. A compound that is a potent cytotoxic, may cause significant loss of cell viability in such assay.
Cellular IC50's were determined in the human colorectal carcinoma cell line, HCT-116, and the normal human fibroblast, IMR90. Protein adjusted IC50's were also determined in HCT-116.
HCT-116 or IMR90 cells were recovered from sub-confluent plates by trypsinization and 1,000 or 4,000 cells, respectively, were plated in 24-well dishes and incubated overnight at 37° C., 5% CO2. HCT-116 cells were cultured in RPMI-1640, 10% FCS, and IMR90 cells were cultured in Minimum Essential Medium-alpha, 10% FCS. After overnight incubation to allow adherence, the media was aspirated from each well and replaced with media containing a test compound at a concentration from 0 to 250 nM, spanning a total of 7 doses. The plates were returned to the incubator and cultured for an additional 72 hours (3 days). […] After 72-hours incubation with the test compound, the cells were washed twice with 1×PBS, taking special care to remove all residual buffer.
A 5 μM Calcein AM solution was prepared by dissolving a […] aliquot of Calcein (Molecular Probes catalog # C3100) in 50 μl DMSO. After the Calcein had completely dissolved (10 minutes at room temperature), it was diluted into 10 ml PBS. Calcein/PBS (0.5 ml) was added to each well. The plates were incubated for 75 minutes at 37° C. (protected from light) and the fluorescent signal was read on a fluorescent plate reader (excitation 485/20 and emission 530/25).

Cdk4/cyclin D1 = biological target: T1, Cdk4/cyclin D1 (Homo sapiens, UniProt P11802); assay: Biochemical kinase assay Cdk4/cyclin D1; settings: Table 6
T1 construct: made in house; host or cells: Sf9 insect cells
From the text: (§6) Enzymes: Cdc2/cyclin B was obtained from commercial sources. Cdk2/his-cyclin Eshort was expressed in Sf9 cells. Cdk2/cyclin A, cdk4/cyclin D1, and cdk6/cyclin D2 were expressed in Sf9 cells. Protein kinase A (catalytic subunit, from bovine heart) and protein kinase C (mixed isozymes from rat brain) were obtained from commercial sources.
(§7) Substrates: Histone H1 was from commercial sources. GST-Rb is glutathione-S-trans-ferase fused to the N-terminal of residues 379-928 of the Rb protein.
(§8) Cdk2/cyclin E, Cdk2/cyclin A, Cdk4/cyclin D1, and Cdk6/cyclin D2 activity was determined using a glutathione-sepharose capture assay. The enzymes were expressed in Sf9 insect cells as heterodimers, and the substrate (GST-Rb) was glutathione-S-transferase fused to residues 379 to 928 of Rb retinoblastoma protein, expressed in E. coli. The assay solution contained 50 mM Tris.HCl, 10 mM MgCl2, 1 mM dithiothreitol, 50 μM adenosine triphosphate, 2 μCi [γ-^33P]adenosine triphosphate, 10% dimethylsulfoxide (from compounds), pH 7.5, 40 μg GST-Rb, and enzyme in a 100 μL volume. Compounds were added at various concentrations between 1 nM and 10 μM. The reaction was allowed to proceed for 15 min at 30° C. and was stopped by the addition of 70 μL of stop solution (237 mM disodium ethylene-diamine tetraacetate, 105 mM adenosine triphosphate, pH 8.0). The GST-Rb was captured by binding to glutathione-sepharose bead (Amersham) for 110 min, and the suspension was filtered through a glass fiber filter. After washing the retained beads five time with phosphate-buffered saline containing 0.3% (w/v) Tween-20, the amount of ^33P incorporated was determined by scintillation counting after adding 100 μL scintillant. Relative activity was determined by dividing the amount of radioactivity incorporated in the presence of compound by the amount of radioactivity incorporated in a control experiment containing DMSO alone but no compound. The background radioactivity, determined in an experiment containing 50 mM disodium ethylenediamine tetraacetate in place of compound, was subtracted from all results before calculations.

Cdk2/cyclin E = biological target: T2, Cdk2/cyclin E (Homo sapiens, UniProt P24941); assay: Biochemical kinase assay Cdk2/cyclin E; settings: Table 6
T2 construct: made in house; host or cells: Sf9 insect cells
From the text: as §6, §7, §8

Cdc2/cyclin B = biological target: T3, Cdc2/cyclin B (Homo sapiens, UniProt P06493); assay: Biochemical kinase assay Cdc2/cyclin B; settings: Table 6
T3 construct: purchased
From the text: as §6, §7
Assays: Cdc2/cyclinB activity was determined by measuring incorporation of radio-activity from adenosine [γ-^32P]triphosphate into Histone H1 using a TCA precipitation assay. Cdc2/cyclin B kinase and Histone H1 were obtained from commercial sources. The final assay solution contained 50 mM Tris.HCl, 10 mM MgCl2, 1 mM dithiothreitol, 50 μM adenosine triphosphate, 2 μCi ^32P, 10% dimethylsulfoxide (from compounds), pH 7.5, 20 μg Histone H1, 6 U enzyme in a 50 μL volume. Compounds were added at various concentrations between 1 nM and 10 μM. The reaction was started with the addition of enzyme, allowed to proceed for 20 min at 30° C., and stopped by the addition of 20 μL of stop solution (237 mM disodium ethylenediamine tetraacetate, 105 mM adenosine triphosphate, pH 8.0). The protein was precipitated by the addition of 35 μL 70% (w/v) trichloroacetic acid, and the precipitate was captured on a 96-well glass fiber filter plate (Millipore, Inc.), which had been wet with 25% (w/v) trichloroacetic acid. The filter was washed ten times with 25% (w/v) trichloroacetic acid, and the amount of incorporated ^32P was determined by scintillation counting after adding 100 μL scintillant (Microscint 20, Packard Instruments). Relative activity was determined by dividing the amount of radioactivity incorporated in the presence of compound by the amount of radioactivity incorporated in a control experiment containing DMSO alone but no compound. The background radioactivity, determined in an experiment containing 50 mM EDTA in place of compound, was subtracted from all results before calculations.

[3] = HCT-116, non-protein adjusted, Table 6, read-out: HCT-116 viability IC50

T1 sequence (P11802 whole entry, species assumed): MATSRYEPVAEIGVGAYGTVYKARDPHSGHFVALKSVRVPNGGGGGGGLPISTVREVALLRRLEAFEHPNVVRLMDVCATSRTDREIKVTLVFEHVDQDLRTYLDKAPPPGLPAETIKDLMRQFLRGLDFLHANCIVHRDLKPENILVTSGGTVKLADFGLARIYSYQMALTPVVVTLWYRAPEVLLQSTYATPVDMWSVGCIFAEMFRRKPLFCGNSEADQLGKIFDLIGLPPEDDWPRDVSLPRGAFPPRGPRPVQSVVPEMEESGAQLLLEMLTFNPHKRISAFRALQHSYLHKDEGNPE
T1 sequence (P24385 whole entry partner, species assumed): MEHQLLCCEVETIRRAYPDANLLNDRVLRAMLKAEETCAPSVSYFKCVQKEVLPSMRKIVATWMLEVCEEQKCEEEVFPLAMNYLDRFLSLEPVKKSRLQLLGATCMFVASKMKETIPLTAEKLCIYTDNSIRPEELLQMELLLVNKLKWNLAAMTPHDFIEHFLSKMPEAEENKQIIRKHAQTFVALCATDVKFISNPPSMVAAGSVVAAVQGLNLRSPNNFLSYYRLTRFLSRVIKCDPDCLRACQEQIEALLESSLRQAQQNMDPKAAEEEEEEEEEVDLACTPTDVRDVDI
T3 sequence (P06493 whole entry, species assumed): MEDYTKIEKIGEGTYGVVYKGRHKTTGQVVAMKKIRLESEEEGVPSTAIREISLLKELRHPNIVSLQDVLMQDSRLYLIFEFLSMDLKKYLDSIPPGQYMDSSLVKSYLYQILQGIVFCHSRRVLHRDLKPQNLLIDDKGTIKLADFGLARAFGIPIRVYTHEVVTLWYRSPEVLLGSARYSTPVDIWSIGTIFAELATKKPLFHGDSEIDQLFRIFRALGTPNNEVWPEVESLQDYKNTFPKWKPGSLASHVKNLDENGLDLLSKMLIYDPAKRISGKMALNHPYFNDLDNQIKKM
T3 sequence (P14635 whole entry partner, species assumed): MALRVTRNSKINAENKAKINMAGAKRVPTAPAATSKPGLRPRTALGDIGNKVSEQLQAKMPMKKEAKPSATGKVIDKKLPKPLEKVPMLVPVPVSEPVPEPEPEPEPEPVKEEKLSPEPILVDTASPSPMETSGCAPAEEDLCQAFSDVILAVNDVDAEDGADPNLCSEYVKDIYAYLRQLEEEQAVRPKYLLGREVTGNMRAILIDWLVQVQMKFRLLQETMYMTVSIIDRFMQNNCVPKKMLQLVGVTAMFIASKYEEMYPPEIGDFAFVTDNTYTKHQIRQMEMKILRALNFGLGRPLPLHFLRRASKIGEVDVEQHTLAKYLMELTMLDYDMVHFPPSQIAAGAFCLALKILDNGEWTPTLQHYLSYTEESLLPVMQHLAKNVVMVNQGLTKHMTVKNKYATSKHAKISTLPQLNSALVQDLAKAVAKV

Compound | pIC50 (HCT-116 cells [1]; HCT-116, 48 h) | pIC50 (HCT-116 cells [1]; HCT-116, 72 h) | pIC50 (arrested IMR90 cells) | pIC50 (arrested HCT-116 cells) | pIC50 (HCT-116 cells [2]; HCT-116, plus 1 mg/ml alpha acidic glycoprotein and 45 mg/ml human serum albumin, read-out: HCT-116 IC50 Protein adjusted) | pIC50 (Cdk4/cyclin D1) | pIC50 (HCT-116 cells [2]; [3]) | pIC50 (Cdk2/cyclin E) | pIC50 (Cdc2/cyclin B)
CC(C)c1nn(-c2c(Cl)cc(Cl)cc2Cl)c2nc(Cc3ccc(NS(=O)(=O)CCCN4CCOCC4)cc3)[nH]c(=O)c12 [D] | > 7.00 | > 7.00 | < 6.00 | > 8.00 | – | – | – | – | –
CN1CCN(NC(=O)Nc2cccc3c2C(=O)c2c-3n[nH]c2-c2ccc(OCCN3CCCC3)cc2)CC1 [F] | – | > 6.00 | < 6.00 | – | > 7.00 | – | – | – | –
CCN(CCO)S(=O)(=O)c1cc(Cl)c(-n2nc(C(C)C)c3c(=O)[nH]c(Cc4ccc(OCCN5CCOCC5)cc4)nc32)c(Cl)c1 [Compound A55] | – | – | – | – | – | > 5.00 | > 7.00 | > 7.00 | > 7.00
CC(C)c1nn(-c2c(Cl)cc(S(N)(=O)=O)cc2Cl)c2nc(Cc3ccc(OCCN4CCOCC4)cc3)[nH]c(=O)c12 [Compound A54] | – | – | – | – | – | > 6.00 | > 7.00 | > 8.00 | > 8.00
COCCOc1ccc(Cc2nc3c(c(C(C)C)nn3-c3c(Cl)cccc3Cl)c(=O)[nH]2)cc1 [Compound A66] | – | – | – | – | – | > 5.00 | > 7.00 | > 7.00 | > 7.00

From patent publication US7605175B2, “Inhibitors of cyclin-dependent kinases, compositions and uses related thereto” (GPC Biotech AG, priority 2001, dated 2009)
